In patent US5167947A, “Enhancement of absorption of radioprotective drugs” (Southwest Research Institute, priority 1989, dated 1992):
Several values for one entry are separate records, joined by “and”; a condition that tells them apart may be missing. Equal entries are not always repeated. Where two headings read alike, the source gives them in different places.

What was measured:
circulating calcium = conditions: human clinical trials; cited from earlier work
mice [1] = conditions: intravenous; cited from earlier work
dogs = conditions: cited from earlier work
Rhesus monkeys = conditions: cited from earlier work
[2] = cited from earlier work
[3] = in vivo; cited from earlier work
[4] = in situ rat intestinal perfusion of ethiofos: circulating perfusate and portal blood; type: in vivo, rat (male Sprague-Dawley); conditions: for plasma concentration change on addition of Na2 EDTA: 1.0 mM Na2 EDTA vs without; for levels in portal blood samples, change on addition of Na2 EDTA: 1 mM Na2 EDTA vs without, ethiofos / total WR-1065; for level in portal blood: perfusion of [14C]ethiofos in pH-adjusted water, intact ethiofos / total WR-1065
Method: Male Sprague-Dawley rats were maintained on a regular diet of rat chow prior to dosing and fasted 16 h before the experiment. Water was available ad libitum.
Rats weighing between 250 g and 325 g were chosen and anesthetized with 50.0 mg/kg sodium pentobarbital ip. The cannulation of the intestine was performed as previously described.
The proximal cannula was inserted through the stomach wall past the pyloric sphincter for experiments which included the bile flow. Experiments which excluded the bile flow were cannulated approximately 3 cm distal to the pyloric spinchter. Five microcuries of (^3 H)PEG 4000 was included in the perfusate to monitor water flux. For some experiments, 1 mCi of (^14 C)ethiofos was added to the reservoir.
Concommitant sampling of blood was accomplished by insertion of a catheter in the portal vein via the ileocecal vein. […] Rectal temperature was monitored in early experiments to assure maintenance of body temperature in this system.
(§1) Ethiofos was separated on a Bioanalytical Systems […] Phase II C18 ODS analytical column with an Uptight guard column packed with Whatman Pellicular C18 37-53 mm material. Amperometric detection was conducted with a Bioanalytical Systems LC 4B amperometric detector with a Hg/Au transducer ell. Detector signal was output to a Waters Associates Model 840 data system.
(§2) A […] portion of blood was immediately treated with […] of chilled (0°-4° C.) 1.0M HC10 containing 1 g/L EDTA. The samples were vortexed and centrifuged at 15,600×g for 45 sec. […] Samples were immediately frozen at -78° C. in a dry ice/2-propanol bath and transferred to a freezer maintained at -78° C.
(§3) The samples were prepared for HPLC analysis by adding 200 ml of buffer (pH 10). Samples were injected onto HPLC Unit A and amperometrically detected with an Hg/Au electrode at +0.25 V. The assay method has been previously described by Swynnerton, McGovern, Nino and Mangold: J. Radiat. Oncol.
(§4) J. Radiat. Oncol. […] Samples were injected on HPLC Unit B and amperometrically detected at +0.15 V.

[5] = intraduodenal administration of ethiofos to Rhesus monkeys, plasma levels; type: in vivo; conditions: Rhesus monkey; for plasma levels on coadministration of ethiofos with EDTA: ethiofos / free and total WR-1065
Method: An ethiofos solution was administered via rapid infusion through an infant nasogastric tube instilled in the duodenum of Rhesus monkeys. X-rays were taken to ensure proper location of the tube prior to drug administration. […] Prior to administration of dosing solution, 10 ml of 1 mM EDTA was predosed into the duodenum over 1 hr using a calibrated infusion pump.
as §1, §2, §3, §4

[6] = stomach acid; cited from earlier work
mice [7] = conditions: cited from earlier work
[8] = in vivo; cited from earlier work; remark: listed apart in the source

SMILES: NCCCNCCSP(=O)(O)O [ethiofos, S-2-(3-aminopropylamino)ethylphosphorothioic acid]
- loss of circulating calcium (circulating calcium): loss of circulating calcium
- protection against X-rays and gamma radiation (mice [1]): has been shown to protect
- protection against X-rays and gamma radiation (dogs; intravenous): has been shown to protect
- protection (oral dosing) (dogs; oral): failed to protect
- protection against X-rays and gamma radiation (Rhesus monkeys; Rhesus monkeys, intravenous): has been shown to protect
- protection (oral dosing) (Rhesus monkeys; monkeys, oral): failed to protect
- plasma halflife ([2]; iv, rhesus monkeys 150 mg/kg): approximately 18 minutes
- ethiofos or its metabolites excreted in the urine within 120 hours ([2]; rhesus monkeys, iv 150 mg/kg, most within 24 hours): 80%
- slowing of stomach motility and gastric emptying [3]: can slow stomach motility and gastric emptying
- disappearance of parent compound from the perfusate ([4]; rat in situ, [14C]ethiofos in pH-adjusted water, first 30 minutes, no EDTA): fairly rapid rate
- radioactivity accounted for by ethiofos and measured metabolite (mass balance of perfusate) ([4]; rat intestinal perfusate, no EDTA): approximately 85%
- radioactivity not accounted for by WR-1065 and ethiofos ([4]; rat intestinal perfusate, no EDTA, may be disulfides): 15%
- plasma concentration change on addition of Na2 EDTA ([4]; rat): significant increase
- levels in portal blood samples, change on addition of Na2 EDTA ([4]; rat): significant increases
- labelled ethiofos / radioactivity remaining in the circulating perfusate ([4]; rat, 90 min perfusion, pH-adjusted water, no EDTA): 90.5±1.7% and 90.5±1.74%
- radioactivity remaining in the circulating perfusate ([4]; rat, 90 min perfusion, with 1.0 mM Na2 EDTA): 85.8±1.09%
- factor of increase of appearance of ethiofos in rat portal blood ([4]; rat, EDTA enhancement, 90 minutes in situ perfusion): 20
- level in portal blood ([4]; rat, no EDTA): transient and low levels
- plasma levels on coadministration of ethiofos with EDTA ([5]; intraduodenal, awake): detectable levels
- AUC ([5]; in vivo, intraduodenal 150 mg/kg, in the presence of EDTA (47:1 ethiofos to EDTA), read-out: AUC (plasma concentration-time curve)): 0.55 µM·h
- hydrolysis in the acidic environment of the stomach [6]: can be hydrolyzed
- approximate LD50 (mice [7]; intraperitoneal): ~950 mg/kg
- approximate LD50 (mice [7]; oral): ~1500 mg/kg

SMILES: O=C(O)CN(CCN(CC(=O)O)CC(=O)O)CC(=O)O [EDTA, ethylenediaminetetraacetic acid]
- protection of ethiofos degradation in the lumen by EDTA ([4]; rat in situ): some protection
- rate of absorption of ethiofos with EDTA ([4]; rat in situ): increase the rate of absorption
- EDTA concentration at which increased absorption reaches a maximum ([4]; rat intestinal perfusion of ethiofos): approximately 1 mM
- EDTA concentration giving highest ethiofos levels in portal blood ([4]; rat, 90 minutes in situ intestinal perfusion): 1.5 mM
- absorption of ethiofos with EDTA ([5]; intraduodenal, awake): enhanced the absorption

SMILES: NCCCNCCS [WR-1065]
- toxicity of the free thiol relative to the parent drug ethiofos [8]: much more toxic
- halflife compared with ethiofos ([2]; rhesus monkey, in vivo, iv): much long halflife
- plasma concentration change on addition of Na2 EDTA ([4]; rat): significant increase
- levels in portal blood samples, change on addition of Na2 EDTA ([4]; rat): significant increases
- metabolite formed in the intestinal lumen ([4]; rat, from perfusate mass balance): major metabolite
- level in portal blood ([4]; rat, no EDTA): comparatively high levels
- plasma levels on coadministration of ethiofos with EDTA ([5]; intraduodenal, awake): substantial increase
